Assay results: PMC9732823, “Discovery of Dual Aβ/Tau Inhibitors and Evaluation of Their Therapeutic Effect on a Drosophila Model of Alzheimer’s Disease” (ACS Chemical Neuroscience, 2022)

Tests used:
[1] = biological target: T1, Aβ42 (Homo sapiens, UniProt P05067); test: Inhibition of Aβ42 aggregation in intact E. coli cells overexpressing Aβ42 (ThS fluorescence); assay type: cell-based, Escherichia coli; settings: read-out: % inhibition Aβ42 aggregation @ 10 μM, intact E. coli cells, compound 10 μM, mean ± SEM of four independent experiments
T1 construct: expressed in transfected cells; host or cells: Escherichia coli BL21 (DE3), pET28a
Text: (§1) As it would have been labor-intensive and expensive to screen such a number of compounds in two separate antiaggregating studies using recombinant Aβ and Tau, we turned our attention to a simple model of protein aggregation, namely, the intact Escherichia coli (E. coli) cells overexpressing Aβ42 and Tau proteins.[28],[29] Building on the fact that inclusion bodies produced by overexpression of these proteins in E. coli mainly consist of fibrillar aggregates, this simple screening method uses bacteria as an in vivo reservoir for tracking the inhibition of amyloid-type protein aggregation in real time, using the amyloid dye thioflavin S (ThS). Of note, this screening has already been used for the evaluation of libraries of antiaggregating compounds.[28]−[38]
Escherichia coli competent cells BL21 (DE3) were transformed with the pET28a vector (Novagen, Inc., Madison, WI) carrying the DNA sequence of Aβ42. Because of the addition of the initiation codon ATG in front of both genes, the overexpressed peptide contains an additional methionine residue at its N terminus. For overnight culture preparation, an amount of 10 mL of M9 minimal medium containing 50 μg·mL^–1 kanamycin was inoculated with a colony of BL21 (DE3) bearing the plasmid to be expressed at 37 °C. For expression of the Aβ42 peptide, the required volume of overnight culture to obtain 1:500 dilution was added into fresh M9 minimal medium containing 50 μg·mL^–1 kanamycin and 250 μM ThS. The bacterial culture was grown at 37 °C and 250 rpm. When the cell density reached ABS600 nm = 0.6, an amount of 980 μL of culture was transferred into Eppendorf tubes of 1.5 mL with 10 μL of each compound to be tested in DMSO and 10 μL of isopropyl 1-thio-β-D-galactopyranoside (IPTG) at 100 mM. The final concentration of the drug was fixed at 10 μM. The samples were grown overnight at 37 °C and 1400 rpm using a thermomixer (Eppendorf, Hamburg, Germany). As the control of the amyloid presence (maximal amyloid presence), the same amount of DMSO without the drug was added to the sample. In parallel, noninduced samples (in the absence of IPTG) were also prepared and used as controls of the non-amyloid presence. In addition, the absorbance at 600 nm of the samples was checked to assess the potential intrinsic toxicity of the compounds and to confirm the correct bacterial growth.
(§2) ThS (T1892) and other chemical reagents were purchased from Sigma (St. Louis, MO). ThS stock solution (25 mM) was prepared in double-distilled water purified through a Milli-Q system (Millipore). For the fluorescence assay, the ThS spectra were measured on an AMINCO-Bowman series 2 luminescence spectrophotometer (Aminco-Bowman AB2, SLM Aminco, Rochester, NY) from 460 to 600 nm at 25 °C using an excitation wavelength of 440 nm and slit widths of 4 nm. The emission at 485 nm (fluorescence peak of ThS in the presence of amyloids) was recorded. To normalize the ThS fluorescence as a function of the bacterial concentration, ABS600nm was obtained using a Shimadzu UV-2401 PC UV–Vis spectrophotometer (Shimadzu, Japan). Note that the fluorescence normalization was carried out considering as 100% the ThS fluorescence of the bacterial cells expressing the peptide or protein in the absence of the drug and 0% the ThS fluorescence of the bacterial cells nonexpressing the peptide or protein.

[2] = biological target: T2, Tau protein (Homo sapiens, UniProt P10636); test: Inhibition of Tau aggregation in intact E. coli cells overexpressing Tau (ThS fluorescence); assay type: cell-based, Escherichia coli; settings: read-out: % inhibition Tau aggregation @ 10 μM, intact E. coli cells, compound 10 μM, mean ± SEM of four independent experiments
T2 construct: expressed in transfected cells; host or cells: Escherichia coli BL21 (DE3) with pTARA and pRKT42
Text: as §1
E. coli BL21 (DE3) competent cells were transformed with pTARA containing the RNA-polymerase gen of the T7 phage (T7RP) under the control of the promoter PBAD. E. coli BL21 (DE3) with pTARA competent cells were transformed with the pRKT42 vector encoding four repeats of Tau protein in two inserts. For overnight culture preparation, 10 mL of M9 medium containing 0.5% of glucose, 100 μg·mL^–1 ampicillin, and 12.5 μg·mL^–1 chloramphenicol were inoculated with a colony of BL21 (DE3) bearing the plasmids to be expressed at 37 °C. For expression of Tau protein, the required volume of overnight culture to obtain 1:500 dilution was added to fresh M9 minimal medium containing 0.5% of glucose, 50 μg·mL^–1 ampicillin, 12.5 μg·mL^–1 chloramphenicol, and 25 μM ThS. The bacterial culture was grown at 37 °C and 250 rpm. When the cell density reached ABS600 nm= 0.6, an amount of 980 μL of culture was transferred into Eppendorf tubes of 1.5 mL with 10 μL of each compound to be tested in DMSO and 10 μL of arabinose at 25%. The final concentration of the drug was fixed at 10 μM. The samples were grown overnight at 37 °C and 1400 rpm using a thermomixer (Eppendorf, Hamburg, Germany). As the control of maximal amyloid presence, the same amount of DMSO without the drug was added to the sample. In parallel, noninduced samples (in the absence of arabinose) were also prepared and used as controls for the amyloid absence. In addition, the absorbance at 600 nm of the samples was checked to assess the potential intrinsic toxicity of the compounds and to confirm the correct bacterial growth.
as §2

[3] = PAMPA-BBB assay
Text: Thus, to reduce attrition in the development process, the evaluation of BBB penetration at a very early drug discovery stage is of crucial importance. In light of this, the ability of the previously selected compounds to cross the BBB was predicted by a parallel artificial membrane permeability assay (PAMPA)-BBB,[41] a high-throughput technique widely used as an indicator of a molecule’s passive diffusion through the BBB. Six commercially available drugs were used to validate the assay.
PAMPA (the parallel artificial membrane permeability assay) is a high-throughput screening tool applicable for the prediction of the passive transport of potential drugs across the BBB.[41] In this study, it has been used as a non-cell-based in vitro assay carried out in a coated 96-well membrane filter. The filter membrane of the donor plate was coated with PBL (Polar Brain Lipid, Avanti) in dodecane (4 μL of 20 mg/mL PBL in dodecane) and the acceptor well was filled with 300 μL of phosphate buffer saline, (PBS pH 7.4; VA). The tested compounds were dissolved first in DMSO and then diluted with PBS pH 7.4 to reach the final concentrations of 50–500 μM in the donor well. […] Then, 300 μL of the donor solution (VD) was added to the donor wells and the donor filter plate was carefully put on the acceptor plate so that the coated membrane was “in touch” with both donor solution and acceptor buffer. In principle, the test compound diffuses from the donor well through the polar brain lipid membrane (area = 0.28 cm^2) to the acceptor well. The concentrations of the tested compound in both donor and the acceptor wells were assessed after 3, 4, 5, and 6 h of incubation in quadruplicate using a UV plate reader, Synergy HT (Biotek) at the maximum absorption wavelength of each compound (n=3). In addition to that, solution of the theoretical compound concentration, simulating the equilibrium state established if the membrane were ideally permeable, was prepared and assessed as well. The concentrations of the compounds in the donor and acceptor wells and the equilibrium concentration were calculated from the standard curve and expressed as the permeability (Pe) according to the equation[41] [drawing 1] where [drawing 2]

[4] = physchem; settings: phosphate buffer (Tau(306-336) aggregation assay conditions), pH 7.4, aqueous buffer
Procedure: (§3) * The results are the mean of at least two independent measurements each performed in duplicate.
1 Compounds were measured at 50 μM.

[5] = test system: Arctic Aβ42 Drosophila flies; test: Climbing assay in Arctic Aβ42 Drosophila flies
Procedure: Thus, we performed behavioral tests to assess the climbing abilities of Aβ42Drosophila flies with and without treatment with 22 (20 μM), 23 (20 μM), and doxycycline (50 μM), compared to control flies.
(§4) The transactivating protein GAL4 is placed under the control of a specific promoter, with its own spatial and temporal patterns, in this case, Elav, whereas the upstream activation sequence (UAS) localized upstream, the locus controlled by the UAS-Gal4; in our study, UAS expresses construct for the E22G variant of Aβ42 (Arctic Aβ42) (AlzArc2).[56],[64] Around 150 flies (half female/male) for each compound tested were collected and divided into groups of 25 flies. At the top of the media, 25 μL of doxycycline (50 μM), 22 (20 μM), or 23 (20 μM) were added fresh anytime the flies were flipped.
Briefly, males and females 25 per vial were kept at 25 °C. The climbing test was performed on days 7, 14, and 21 after birth. […] The protocol was repeated 10 times at 5-min intervals.

[6] = test system: Arctic Aβ42 Drosophila flies; test: Lifespan analysis in Arctic Aβ42 Drosophila flies; settings: 20 μM in fly food; days 5, 10, 20 post-eclosion
Procedure: As longevity is a phenotype that can be rapidly measured in this in vivo AD model, we first assessed changes in Drosophila’s lifespan with and without treatment with 22 and 23 (20 μM). […] Doxycycline was tested at 50 μM, a concentration used in similar previous experiments.[59]
as §4
Briefly, males and females 25 per vial were kept at 25 °C.

[7] = Solubility in the in vitro aggregation assay conditions
Procedure: as §3
1 Compounds were measured at 50 μM.

[8] = test system: cerebellar granule neurons (CGNs); test: Neurotoxicity on primary cultures of cerebellar granule neurons (nuclei counting after Hoechst staining); settings: differentiated CGNs, 24 h, percentage of healthy nuclei on total nuclei, mean ± SEM of three experiments
[9] = biological target: T3, Tau(306-336) peptide (Homo sapiens, UniProt P10636); test: Inhibition of Tau(306-336) peptide aggregation (ThT fluorimetric assay); assay type: biochemical; settings: Tau(306-336) 50 μM, compound 50 μM, phosphate buffer pH 7.4, read-out: Inhibition of Tau(306-336) peptide self-aggregation (%) ± SEM
T3 construct: 1 mg of Tau(306-336) (Bachem AG, Germany) was dissolved; purchased Bachem AG, Germany
Procedure: Secondly, we investigated the ability of the compounds to interfere with Tau aggregation, using the third repeat domain Tau fragment (Tau(306-336) peptide).[44] The aggregation profiles of the Tau(306–336) peptide (50 μM) in the absence and presence of equimolar concentrations of either 22 or 23 were monitored in phosphate buffer 50 mM, pH 7.4, using Thioflavin T (ThT) as the detection dye.
Briefly, 1 mg of Tau(306-336) (Bachem AG, Germany) was dissolved in 1,1,1,3,3,3,-hexafluoro-2-propanol (HFIP), gently vortexed, sonicated, and kept overnight at room temperature. Subsequently, the sample was aliquoted, dried, and stored at −20 °C. Stock solutions of Tau(306-336) peptide (500 μM) were prepared in ultrapure water and immediately used. […] Tau(306-336) aggregation was monitored at 30 °C in a black, clear bottom 96-well plate (Greiner) by the EnSpire multiplate reader (Perkin Elmer) using the ThT fluorimetric assay[14] with some variations. […] Fluorescence data were recorded every 10 min overnight with 1 min shaking at 800 rpm prior to each reading. […] Inhibition % is expressed as the mean ± SEM. Quenching of ThT fluorescence was evaluated by preparing blank solutions containing the inhibitor/reference compound and preformed fibrils of Tau(306–336) peptide.

T1 sequence (P05067 672-713 limits assumed): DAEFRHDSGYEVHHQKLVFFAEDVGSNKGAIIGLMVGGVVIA
T2 sequence (P10636 1-441 isoform P10636-8): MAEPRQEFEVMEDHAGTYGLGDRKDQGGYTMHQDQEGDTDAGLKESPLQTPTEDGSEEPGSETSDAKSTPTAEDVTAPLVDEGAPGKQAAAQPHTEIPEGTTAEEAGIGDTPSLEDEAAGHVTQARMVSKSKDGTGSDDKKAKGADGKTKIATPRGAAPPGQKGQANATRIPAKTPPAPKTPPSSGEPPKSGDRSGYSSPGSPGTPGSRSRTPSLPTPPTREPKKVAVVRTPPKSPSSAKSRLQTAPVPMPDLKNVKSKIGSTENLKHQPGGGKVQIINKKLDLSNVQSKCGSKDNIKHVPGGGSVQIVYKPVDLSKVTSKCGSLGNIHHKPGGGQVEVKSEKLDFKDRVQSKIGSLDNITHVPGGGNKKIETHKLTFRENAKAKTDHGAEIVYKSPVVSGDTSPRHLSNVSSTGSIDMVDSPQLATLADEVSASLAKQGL
T3 sequence (P10636 623-653 limits assumed): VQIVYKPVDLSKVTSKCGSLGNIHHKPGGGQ

SMILES	inhibition at 10 µM [1]	inhibition at 10 µM [2]	Papp ([3]; PAMPA, pH 7.4)	BBB permeability prediction ([3]; PAMPA-BBB)	CNS (+/-) ([3]; PAMPA-BBB penetration estimation)	solubility [4]	climbing abilities of Aβ42 Drosophila flies on day 21 ([5]; 20 μM in fly food)	climbing abilities of Aβ42 Drosophila flies ([5]; 20 μM in fly food, days 7, 14, 21 post-eclosion)	lifespan of Aβ42 Drosophila flies [6]	solubility in Tau(306-336) aggregation assay conditions ([7]; 50 μM, phosphate buffer 50 mM pH 7.4, NS = not soluble in the assay conditions)	solubility in Aβ42 ThT-based assay condition ([7]; dedicated solubility assays)	% survival neurotoxicity @ 10 μM [8]	inhibition at 50 µM [9]	climbing abilities of Aβ42 Drosophila flies on day 21 ([5]; 50 μM in fly food)
CN(C)CCN1C(=O)S/C(=C\c2ccc3[nH]c4ccc(/C=C5\SC(=O)N(CCN(C)C)C5=O)cc4c3c2)C1=O [Compound 22, (5Z,5′Z)-5,5′-((9H-Carbazole-3,6-diyl)bis(methanylylidene))bis(3-(2-(dimethylamino)ethyl)thiazolidine-2,4-dione)]	74 ± 4.3%	66.1 ± 3.9%	5.3 ± 1.17 ×10⁻⁶ cm/s	predicted to passively diffuse across the BBB	CNS + (CNS + (high BBB permeation predicted): Pe (×10-6 cm s-1) > 4.0)	< 50 µM	good climbing performances	greatly improving the climbing performances	increase in longevity	solubility issues	too limited to grant trustable results	94.3 ± 1.8%		
C[C@H]1c2cccc(O)c2C(=O)C2=C(O)[C@]3(O)C(=O)C(C(N)=O)=C(O)[C@@H](N(C)C)[C@@H]3[C@@H](O)[C@@H]21 [Doxycycline, doxycycline, reference compound]													61.5 ± 0.8%	strongly declined
